From the NIST ThermoML archive (doi:10.1021/je500696p)

Experiments:
[1] = excess molar enthalpy (molar enthalpy of mixing); xn = mol fraction of the nth substance listed; conditions: 100 kPa, Liquid, Calvet calorimetry
[2] = xn = mol fraction of the nth substance listed; conditions: 100 kPa, Liquid, Vibrating tube method

CCCC[N+](C)(C)C.O=S(=O)([N-]S(=O)(=O)C(F)(F)F)C(F)(F)F [butyltrimethylammonium bis(trifluoromethylsulfonyl)imide] + CCCO
Conditions | excess molar enthalpy [kJ/mol] | mass density [kg/m3]
[1], 308.15 K, x2 = 0.1224 | 0.935 | –
[1], 308.15 K, x2 = 0.2622 | 1.83 | –
[1], 308.15 K, x2 = 0.2665 | 1.85 | –
[1], 308.15 K, x2 = 0.374 | 2.33 | –
[1], 308.15 K, x2 = 0.4927 | 2.6 | –
[1], 308.15 K, x2 = 0.5007 | 2.61 | –
[1], 308.15 K, x2 = 0.5108 | 2.62 | –
[1], 308.15 K, x2 = 0.5118 | 2.64 | –
[1], 308.15 K, x2 = 0.6191 | 2.53 | –
[1], 308.15 K, x2 = 0.744 | 2.23 | –
[1], 308.15 K, x2 = 0.7466 | 2.23 | –
[1], 308.15 K, x2 = 0.7505 | 2.18 | –
[1], 308.15 K, x2 = 0.8709 | 1.48 | –
[1], 313.15 K, x2 = 0.113 | 0.781 | –
[1], 313.15 K, x2 = 0.2393 | 1.56 | –
[1], 313.15 K, x2 = 0.2549 | 1.61 | –
[1], 313.15 K, x2 = 0.3933 | 2.17 | –
[1], 313.15 K, x2 = 0.4936 | 2.38 | –
[1], 313.15 K, x2 = 0.4959 | 2.37 | –
[1], 313.15 K, x2 = 0.499 | 2.38 | –
[1], 313.15 K, x2 = 0.6245 | 2.36 | –
[1], 313.15 K, x2 = 0.7406 | 2.12 | –
[1], 313.15 K, x2 = 0.8666 | 1.54 | –
[1], 323.15 K, x2 = 0.1187 | 0.773 | –
[1], 323.15 K, x2 = 0.2569 | 1.7 | –
[1], 323.15 K, x2 = 0.2694 | 1.76 | –
[1], 323.15 K, x2 = 0.3969 | 2.25 | –
[1], 323.15 K, x2 = 0.527 | 2.51 | –
[1], 323.15 K, x2 = 0.5431 | 2.56 | –
[1], 323.15 K, x2 = 0.6214 | 2.5 | –
[1], 323.15 K, x2 = 0.7499 | 2.29 | –
[1], 323.15 K, x2 = 0.8707 | 1.73 | –
[2], 293.15 K, x2 = 0 | – | 1397.1
[2], 293.15 K, x2 = 0.1273 | – | 1375
[2], 293.15 K, x2 = 0.2596 | – | 1346.9
[2], 293.15 K, x2 = 0.3787 | – | 1315
[2], 293.15 K, x2 = 0.4996 | – | 1273.9
[2], 293.15 K, x2 = 0.6368 | – | 1210.1
[2], 293.15 K, x2 = 0.7624 | – | 1126
[2], 293.15 K, x2 = 0.8787 | – | 1008.7
[2], 293.15 K, x2 = 0.9498 | – | 903.9
[2], 293.15 K, x2 = 0.9799 | – | 847.3
[2], 295.15 K, x2 = 0 | – | 1395.3
[2], 295.15 K, x2 = 0.1273 | – | 1373.2
[2], 295.15 K, x2 = 0.2596 | – | 1345.1
[2], 295.15 K, x2 = 0.3787 | – | 1313.2
[2], 295.15 K, x2 = 0.4996 | – | 1272.1
[2], 295.15 K, x2 = 0.6368 | – | 1208.3
[2], 295.15 K, x2 = 0.7624 | – | 1124.2
[2], 295.15 K, x2 = 0.8787 | – | 1006.9
[2], 295.15 K, x2 = 0.9498 | – | 902.2
[2], 295.15 K, x2 = 0.9799 | – | 845.7
[2], 298.15 K, x2 = 0 | – | 1392.7
[2], 298.15 K, x2 = 0.1273 | – | 1370.6
[2], 298.15 K, x2 = 0.2596 | – | 1342.4
[2], 298.15 K, x2 = 0.3787 | – | 1310.6
[2], 298.15 K, x2 = 0.4996 | – | 1269.4
[2], 298.15 K, x2 = 0.6368 | – | 1205.6
[2], 298.15 K, x2 = 0.7624 | – | 1121.4
[2], 298.15 K, x2 = 0.8787 | – | 1004.3
[2], 298.15 K, x2 = 0.9498 | – | 899.7
[2], 298.15 K, x2 = 0.9799 | – | 843.2
[2], 303.15 K, x2 = 0 | – | 1388.3
[2], 303.15 K, x2 = 0.1273 | – | 1366.2
[2], 303.15 K, x2 = 0.2596 | – | 1338
[2], 303.15 K, x2 = 0.3787 | – | 1306.1
[2], 303.15 K, x2 = 0.4996 | – | 1264.9
[2], 303.15 K, x2 = 0.6368 | – | 1201.1
[2], 303.15 K, x2 = 0.7624 | – | 1117
[2], 303.15 K, x2 = 0.8787 | – | 999.9
[2], 303.15 K, x2 = 0.9498 | – | 895.5
[2], 303.15 K, x2 = 0.9799 | – | 839.1
[2], 308.15 K, x2 = 0 | – | 1384
[2], 308.15 K, x2 = 0.1273 | – | 1361.8
[2], 308.15 K, x2 = 0.2596 | – | 1333.5
[2], 308.15 K, x2 = 0.3787 | – | 1301.6
[2], 308.15 K, x2 = 0.4996 | – | 1260.4
[2], 308.15 K, x2 = 0.6368 | – | 1196.5
[2], 308.15 K, x2 = 0.7624 | – | 1112.5
[2], 308.15 K, x2 = 0.8787 | – | 995.5
[2], 308.15 K, x2 = 0.9498 | – | 891.2
[2], 308.15 K, x2 = 0.9799 | – | 835
[2], 313.15 K, x2 = 0 | – | 1379.6
[2], 313.15 K, x2 = 0.1273 | – | 1357.4
[2], 313.15 K, x2 = 0.2596 | – | 1329.1
[2], 313.15 K, x2 = 0.3787 | – | 1297.2
[2], 313.15 K, x2 = 0.4996 | – | 1255.9
[2], 313.15 K, x2 = 0.6368 | – | 1192
[2], 313.15 K, x2 = 0.7624 | – | 1107.9
[2], 313.15 K, x2 = 0.8787 | – | 991.1
[2], 313.15 K, x2 = 0.9498 | – | 887
[2], 313.15 K, x2 = 0.9799 | – | 830.8
[2], 318.15 K, x2 = 0 | – | 1375.2
[2], 318.15 K, x2 = 0.1273 | – | 1353
[2], 318.15 K, x2 = 0.2596 | – | 1324.7
[2], 318.15 K, x2 = 0.3787 | – | 1292.7
[2], 318.15 K, x2 = 0.4996 | – | 1251.4
[2], 318.15 K, x2 = 0.6368 | – | 1187.4
[2], 318.15 K, x2 = 0.7624 | – | 1103.4
[2], 318.15 K, x2 = 0.8787 | – | 986.7
[2], 318.15 K, x2 = 0.9498 | – | 882.6
[2], 318.15 K, x2 = 0.9799 | – | 826.6
[2], 323.15 K, x2 = 0 | – | 1370.9
[2], 323.15 K, x2 = 0.1273 | – | 1348.6
[2], 323.15 K, x2 = 0.2596 | – | 1320.3
[2], 323.15 K, x2 = 0.3787 | – | 1288.2
[2], 323.15 K, x2 = 0.4996 | – | 1246.9
[2], 323.15 K, x2 = 0.6368 | – | 1182.9
[2], 323.15 K, x2 = 0.7624 | – | 1098.8
[2], 323.15 K, x2 = 0.8787 | – | 982.2
[2], 323.15 K, x2 = 0.9498 | – | 878.3
[2], 323.15 K, x2 = 0.9799 | – | 822.4
[2], 328.15 K, x2 = 0 | – | 1366.6
[2], 328.15 K, x2 = 0.1273 | – | 1344.3
[2], 328.15 K, x2 = 0.2596 | – | 1315.9
[2], 328.15 K, x2 = 0.3787 | – | 1283.8
[2], 328.15 K, x2 = 0.4996 | – | 1242.4
[2], 328.15 K, x2 = 0.6368 | – | 1178.3
[2], 328.15 K, x2 = 0.7624 | – | 1094.3
[2], 328.15 K, x2 = 0.8787 | – | 977.7
[2], 328.15 K, x2 = 0.9498 | – | 873.9
[2], 328.15 K, x2 = 0.9799 | – | 818
[2], 333.15 K, x2 = 0 | – | 1362.3
[2], 333.15 K, x2 = 0.1273 | – | 1339.9
[2], 333.15 K, x2 = 0.2596 | – | 1311.5
[2], 333.15 K, x2 = 0.3787 | – | 1279.4
[2], 333.15 K, x2 = 0.4996 | – | 1237.9
[2], 333.15 K, x2 = 0.6368 | – | 1173.8
[2], 333.15 K, x2 = 0.7624 | – | 1089.7
[2], 333.15 K, x2 = 0.8787 | – | 973.1
[2], 333.15 K, x2 = 0.9498 | – | 869.5
[2], 333.15 K, x2 = 0.9799 | – | 813.7
